A word on the thermodynamic solubility: it is solubility found after equilibrating the solid with the medium. The term logP denotes a log measure of how a compound divides between an organic and an aqueous phase. Lower therefore signals lower lipophilicity.

Converted amounts (≈) assume the structure as drawn. Read-outs that look alike come from different tables or passages of the source. Marks after values point to notes of the source that are not given here.

Results on twelve compounds are retold here after patent publication US20090209046A1, “Neutral Pharmaceuticals” (priority 2006, published 2009).

The nature of data set [1]: Measurement of solubility in water, octanol saturated water and water saturated octanol. The note with it: for logSR (Swo/Sow): log solubility ratio; for logSR (Swo/Sow) / Sow / Swo / Sw: 25° C.; for Sow: solubility in octanol saturated water; for Swo: solubility in water saturated octanol; for Sw: solubility in water.
Protocol: Solubilities were determined at 25° C. in water (Sw), octanol saturated water (Sow), water saturated octanol (Swo). An excess of the sample was added to 15 ml of each solvent and stirred vigorously at 25° C. for 8 hours. […] The supernatant was collected. The supernatant samples after appropriate dilutions with respective solvent were analyzed by UV spec using a standard plot of solute in the same medium. Solubility of copper acetate in water saturated octanol was determined by extracting 200 ml saturated wo solution into 20 ml ow.
Data set [2] is described as follows: Stability of mixed-ligand Cu(II) complexes in solution (ESI-MS, 1H DOSY NMR). It counts as physicochemical. To be noted: 1H DOSY NMR in D2O, 298K. As for the experimental part:
NMR tubes with a 5-mm internal diameter were used. […] Diffusion coefficients were measured by incrementing the amplitude of the field gradient pulse over 32 steps (0.5-30 G/cm). The bipolar gradient duration and the diffusion time were optimized to 2.4 ms and 14.9 ms, respectively. The intensities were fitted to an exponential decay using the SimFit program within the Topspin software to provide estimates of the diffusion constant.
The formation of Cu(ASP)2(AL)2(H2O) is also observed by us from the ESI-MS of ASP-7 and ASP-8 in aqueous solution. Indeed, for mononuclear Cu(II) species, the coordination of anionic API and neutral AL to copper in solution has been confirmed by the mass spectra.
Since structures of binuclear Cu(II) complexes are analogous, as a model, ASP-3 was investigated by using NMR diffusion measurement for stability studies. Diffusion-Ordered Spectroscopy […]) methods^11 are based on pulsed-field gradient spin-echo NMR experiments. […] The small peak on the left at 8.160 ppm is assigned to one proton of 3-Br-Py by comparing the ^1H NMR spectra of ASP-3 and ASP-3/3-Br-Py mixture. Peaks in the range of 7-8 ppm are due to the peak overstocking of aspirin and 3-Br-Py aromatic protons. […] The diffusion coefficient for ASP-3 was 3.819×10^−9 m^2/s. […]

Data set [3] in a line: Measurement of P: partition coefficient in 1-octanol/water system. To be noted: 25° C., observed, for aspirin and caffeine the parent drug itself.
The conditions of data set [4]: water, cited from earlier work.

For the compound `Brc1cccnc1.Brc1cccnc1.CC(=O)Oc1ccccc1C(=O)[O-].CC(=O)Oc1ccccc1C(=O)[O-].CC(=O)Oc1ccccc1C(=O)[O-].CC(=O)Oc1ccccc1C(=O)[O-].[Cu+2].[Cu+2]` [ASP-3, Cu2(ASP)4(3-Br-Py)2], in data set [1], the “logSR (Swo/Sow)” value was −0.09583, the Sow is 1.566(5) mg/ml, the Swo was 1.256(15) mg/ml and the Sw is listed as 1.564(3) mg/ml. Moreover, the diffusion coefficient in data set [2] is 3.819×10^−9 m^2/s. In addition, the logP of complex in data set [3] is on record as 0.1066(58).

Regarding `CC(=O)Oc1ccccc1C(=O)[O-].CC(=O)Oc1ccccc1C(=O)[O-].CC(=O)Oc1ccccc1C(=O)[O-].CC(=O)Oc1ccccc1C(=O)[O-].[Cu+2].[Cu+2].c1ccc2ncccc2c1.c1ccc2ncccc2c1` [ASP-4, Cu2(ASP)4(Quinoline)2], in data set [1], the “logSR (Swo/Sow)” value is 0.2133, the Sow is given as 3.342(3) mg/ml, the Swo was 5.460(23) mg/ml and the Sw is on record as 2.729(1) mg/ml. In addition, the logP of complex in data set [3] is on record as 0.4772(140).

With `CC(=O)Oc1ccccc1C(=O)[O-].CC(=O)Oc1ccccc1C(=O)[O-].NC(=O)c1ccncc1.NC(=O)c1ccncc1.[Cu+2]` [ASP-7, Cu(ASP)2(Isonicotinamide)2], in data set [1], the “logSR (Swo/Sow)” value is reported as −0.5333, the Sow is 5.654(20) mg/ml, the Swo was 1.673(9) mg/ml and the Sw was 9.259(5) mg/ml. Moreover, the logP of complex in data set [3] is given as −0.4723(272).

As to `CC(=O)Oc1ccccc1C(=O)[O-].CC(=O)Oc1ccccc1C(=O)[O-].NC(=O)c1cccnc1.NC(=O)c1cccnc1.[Cu+2]` [ASP-8, Cu(ASP)2(Nicotinamide)2], in data set [1], the “logSR (Swo/Sow)” value is on record as −0.6490, the Sow is listed as 3.361(29) mg/ml, the Swo is given as 0.7541(97) mg/ml and the Sw is 4.417(50) mg/ml. In data set [3], the logP of complex was −0.5257(136).

Consider `CC(=O)Oc1ccccc1C(=O)O` [Aspirin(ASP), acetylsalicylic acid, reference compound], for which, in data set [1], the “logSR (Swo/Sow)” value is recorded as 1.101 and the Swo is listed as 54.16(94) mg/ml. The same compound gave a solubility (thermodynamic) at 8 h in data set [1] (octanol saturated water, 25 °C, water, thermodynamic from solid) of 4300 µg/mL (≈ 23.8 mM). Moreover, in data set [4] (from reference Koch et al. J. Pharm. Sci. 1978), the Sw is on record as 4.600^b mg/ml. The compound further had a logP in “physchem” of 1.32.

For `CC(=O)[O-].CC(=O)[O-].COc1cccc(OC)c1C(=O)[O-].COc1cccc(OC)c1C(=O)[O-].O.O.[Cu+2].[Cu+2]` [MC-2, Cu2(CH3COO)2(DMB)2(H2O)2], in data set [1], the “logSR (Swo/Sow)” value is given as −1.428, the Sow is 15.64(14) mg/ml, the Swo is 0.5841(103) mg/ml and the Sw is given as 15.82(11) mg/ml. For the same compound, the logP of complex in data set [3] is on record as −1.496(15).

Consider `COc1cccc(OC)c1C(=O)[O-].COc1cccc(OC)c1C(=O)[O-].COc1cccc(OC)c1C(=O)[O-].COc1cccc(OC)c1C(=O)[O-].O.O.[Cu+2].[Cu+2]` [MC-3, Cu2(DMB)4(H2O)2], for which, in data set [1], the “logSR (Swo/Sow)” value was −0.9168, the Sow is on record as 31.97(19) mg/ml, the Swo is 3.872(125) mg/ml and the Sw is on record as 33.61(21) mg/ml. Also, the logP of complex in data set [3] is given as −1.442(27).

With `O.O.O=C(Oc1ccccc1C(=O)[O-])c1ccccc1O.O=C(Oc1ccccc1C(=O)[O-])c1ccccc1O.O=C(Oc1ccccc1C(=O)[O-])c1ccccc1O.O=C(Oc1ccccc1C(=O)[O-])c1ccccc1O.[Cu+2].[Cu+2]` [SAS-1, Cu2(SAS)4(H2O)2], in data set [1], the “logSR (Swo/Sow)” value came to 1.033, the Sow is listed as 0.2962(10) mg/ml, the Swo is recorded as 3.200(5) mg/ml and the Sw is given as 0.2791(6) mg/ml. Further, in data set [3], the logP of complex is reported as 0.06927(1394).

Regarding `C1CCOC1.C1CCOC1.O=C(Oc1ccccc1C(=O)[O-])c1ccccc1O.O=C(Oc1ccccc1C(=O)[O-])c1ccccc1O.O=C(Oc1ccccc1C(=O)[O-])c1ccccc1O.O=C(Oc1ccccc1C(=O)[O-])c1ccccc1O.[Cu+2].[Cu+2].c1ccc(-c2ccncc2)cc1.c1ccc(-c2ccncc2)cc1` [SAS-5, Cu2(SAS)4(4-Phenyl-Pyridine)2(THF)2], in data set [1], the “logSR (Swo/Sow)” value was determined as 1.593, the Sow was 0.0315(2) mg/ml, the Swo was 1.236(18) mg/ml and the Sw is given as 0.0303(3) mg/ml. The logP of complex in data set [3] was 1.231(53).

Turning to “Cu2(CH3COO)4(H2O)2 [MC-1, reference compound]”, in data set [1], the “logSR (Swo/Sow)” value is reported as −2.807 and the Swo is 0.1161(438) mg/ml. For the same compound, in data set [4] (from MSDS), the Sw is 72^a mg/ml. In addition, the logP of complex in data set [3] is −2.222(553).

For “Cu(ASP)2(Isonicotinamide)2(AcCN)2 [ASP-6]”, in data set [1], the “logSR (Swo/Sow)” value is given as −0.4980, the Sow was 5.767(7) mg/ml, the Swo is 1.832(17) mg/ml and the Sw is 9.315(10) mg/ml. Further, the logP of complex in data set [3] was −0.4647(274).

With “Cu(SAS)2(Isonicotinamide)2(AcCN)2/3 [SAS-7]”, in data set [1], the “logSR (Swo/Sow)” value came out at 0.4241, the Sow is 0.2890(10) mg/ml, the Swo is 0.8344(165) mg/ml and the Sw is 0.3143(9) mg/ml. In data set [3], the logP of complex is on record as 0.03802(967).
